One series concerns T-cell. As to conditions: stimulated by these agonists; cited from earlier work.
The next series concerns PMN leukocytes. As to conditions: cited from earlier work.
In another series the test system is PMN leucocyte. As to conditions: 200 mg for 10 days; cited from earlier work.
In another series the test system is neutrophil. As to conditions: Ca^++ ionophore and FLMP; cited from earlier work.
In series [1] the test system is chemotactic activity induced by zymosan. As to conditions: healthy volunteers and patients; cited from earlier work.
For series [2], the system named is carrageenin-induced pleural exudate; PMN cell migration. Particulars: cited from earlier work.
For series [3], the system named is oedema formation. As to the kind of experiment: animal or person. Particulars: Cavia porcellus, read-out: dose from which oedema inhibition is statistically significant.
Another series deals with hyperalgesia. As to the kind of experiment: animal or person. An excerpt:
In order to predict the therapeutic effect of the racemates in men, it is necessary to know how much the single enantiomers contribute to the global activity, using experimental models excluding metabolic bio-conversion. […] This model allows the contemporary evaluation of the inhibition of oedema formation and of hyperalgesia.

The subject of another series is Neutrophils. Particulars: 10^-6 M, 10 min 37° C; FIG. 2, ** p<0.01.
Series [4] concerns human PMN neutrophils. Briefly: [Ca^++ ]i increase induced by C5a in human PMN neutrophils. It is filed as cell-based. The source says: (§1) Results are expressed as percent of the basal value of [Ca^++ ]i and are the mean from the values of all responsive cells. Standard error of the mean (SEM) and number of replications (n, in brackets) are also reported.
Series [5] deals with human PMN neutrophils. As to the kind of experiment: [Ca^++ ]i increase induced by FMLP in human PMN neutrophils. It is filed as cell-based. Particulars: FLMP 10^-7 M; % of basal (100%); no treatment 208 ± 7.
Source text: as §1

Series [6] is described as follows: gastric ulcer-inducing properties in rats (ulcer score). Type of series: in vivo. As to conditions: rat. An excerpt:
Guinea-pigs are a species naturally resistant to the gastrolesive action of NSAIDs, so that it is not possible to compare the two enantiomers in respect to this parameter in this species, unless using very high doses, having no predictive value. To this purpose, rats are necessarily, again, the chosen species, although the least suitable. […] The differences among the enantiomers and the racemate were statistically significant starting from the dose of […]: at this dose an "ulcer score" of 2 was evaluated for the (R) enantiomer, compared with "ulcer scores" of 3 and 4 for the racemate and the (S) enantiomer, respectively.

Series [7] deals with oedema formation. Particulars: 25 to 750 mmoles/kg.
The test system of series [8] is Ca^++ channels, human PMN neutrophils. Briefly: competition study with lanthanum ions: [Ca^++ ]i increase induced by IL-8, role of Ca^++ channels. Particulars: ketoprofen L-lysine salt 10^-8 M; La^+++ 10 μM; IL-8 50 ng/ml; % of basal (100%). It is filed as cell-based. The method, then: Results reported in Table 2 are the cumulative values from 3 trials (3 donors, 3-7 cells per specimen). […] Responses are expressed as percent of basal [Ca^++ ]i value and are the mean from the values of all responsive cells. Standard error of the mean (SEM) and number of replications (in brackets) are also reported. […] The concentration of ketoprofen L-lysine salt was 10^-8 M, that of La^+++ 10 μM, and that of IL-8 50 ng/ml.

The subject of a further series is human PMN leukocytes. As to the kind of experiment: [Ca^++ ]i increase induced by IL-8 in human PMN leukocytes. Particulars: IL-8 50 ng/ml, % of basal [Ca^++ ]i (basal 100%), no drug 302 ± 11. Type of series: cell-based. The method, then:
The results reported in Table 1 are cumulative data obtained from 8 trials (8 donors who gave their explicit consent, 3 to 7 cells per specimen). […] The responses, expressed as percent of basal value of [Ca^++ ]i, are the mean from all responsive cells; standard error of the mean (±SEM) and number of replications (in brackets) are also reported. […] IL-8 concentration was 50 ng/ml.

Series [9] has as its system mouse peritoneal macrophages. Briefly: lipopolysaccharide-stimulated TNF-a release from mouse peritoneal macrophages. Type of series: cell-based. Particulars: LPS-stimulated; 10^-9 -10^-5 M.
Series [10] relates to mouse peritoneal macrophages. Briefly: lipopolysaccharide-stimulated IL-1b release from mouse peritoneal macrophages. It is filed as cell-based. Particulars: LPS-stimulated; 10^-9 -10^-5 M.
In series [11] the test system is human PMN neutrophils. Briefly: IL-8-stimulated human PMN neutrophil degranulation (elastase release), FIG. 1. It is filed as cell-based. As to conditions: IL-8 50 ng/ml, cytoclasin B 10^-5 M, 30 min 37° C; FIG. 1, ** p<0.05 against IL-8. As to the method: Human PMN neutrophils (10^7 /ml) were stimulated in the presence of cytoclasin B (10^-5 M) by adding IL-8 (50 ng/ml) and incubating them for 30 min at 37° C. La^+++ was added 5 min before IL-8 and the lysine salts of (R)- and (S)-ketoprofen 15 min before IL-8. Degranulation was evaluated based on the amount of elastase released in the cell-free surnatant and is expressed as DOD×10^3 /min.

For series [12] the following is noted: rats; in words; cited from earlier work.
A further series deals with TXB2 synthesis. As to the kind of experiment: TXB2 synthesis inhibition in human blood. It is filed as cell-based. Particulars: index of platelet antiaggregating properties.
A further series can be described thus: gastrolesive action. As to conditions: in vivo.
Series [13] deals with croton oil-induced ear oedema. Particulars: compared with racemate and (S) enantiomer; mice; cited from earlier work.
A further series concerns platelet aggregation. As to the kind of experiment: inhibitory action on platelet aggregation.
The next series deals with pain perception. Particulars: men; compared with (S) enantiomers; cited from earlier work.
Series [14] deals with ultra-violet radiation-induced epidermal erythema. Particulars: topic; guinea pigs; cited from earlier work.
Series [15] concerns carrageenin-induced oedema. Particulars: compared with racemate and (S) enantiomer; rats; cited from earlier work.

Here are results for four molecules from patent US6069172A, “(R)-2-(3-benzoylphenyl) propionic acid salts and pharmaceutical preparations containing them” (priority 1998, dated 2000).

Counter-ions that a name gives are not always drawn.

In the case of “4-[3-(4-Fluorophenyl)]-2-[[4-(N-3-(2-quinolinmethoxy) phenyl)]amino]phenylpropylbenzoic acid [ETH-615]”, the T-cell migration entry in the series with T-cell is on record as “no effects”. The “chemotaxis of PMN leukocytes induced by FLMP” value with PMN leukocytes (FLMP) was “only slightly inhibited”. For the same molecule, the “chemotaxis of PMN leukocytes induced by IL-8 or LTB4” value in the series on PMN leukocytes (IL-8 or LTB4) is on record as “clearly inhibited”.

For `CC(C(=O)O)c1cccc(C(=O)c2ccccc2)c1` (racemic) [ketoprofen], in the series on PMN leucocyte, the PMN leucocyte fagocytosis entry is “reduction” and the “bactericidal function of PMN” value is listed as “not affected”. The “inhibition of neutrophil activation / blockade of Ca^++ ion entry” value with neutrophil was “completely inactive”. Moreover, the “chemotactic activity induced by zymosan” value in series [1] was “inhibited”. Moreover, the “migration of cells into the pleural cavity, later study” value in [2] (later demonstration against the earlier one) is “exatly the opposite”. Besides, the “migration of cells into the pleural cavity” value in series [2] (oral, PMN cells vs monocytes, thought in 1975) is reported as “inhibit the migration of PMN cells, but not that of monocytes”. In addition, the “carrageenin-induced formation of pleural exudate” value in [2] (oral) is reported as “inhibited”.

Take `C[C@@H](C(=O)O)c1cccc(C(=O)c2ccccc2)c1` [(R)-ketoprofen L-lysine salt, (R)-2-(3-benzoylphenyl)propionic acid]: the minimal effective dose with oedema formation [3] turned out to be 250000 µmol/kg. Moreover, the “inhibitory effect on hyperalgesia” value with hyperalgesia (25 to 750 mmoles/kg) was “marked, dose-dependent inhibitory effect on hyperalgesia”. In the series with hyperalgesia (maximal at the highest dose), the “doses with marked, dose-dependent inhibition of hyperalgesia” value lay in the range of 75 to 250 mmol/kg. Also, the “inhibitory effect on IL-8-stimulated chemotactic migration” value in the series on Neutrophils is given as “specific inhibitory effects”. For the same molecule, the “C5a [Ca^++ ]i (% ± SEM)” value in the series on human PMN neutrophils [4] (C5a 10^-8 M, % of basal (100%), no treatment 198 ± 10) stood at 153 ± 4%. Moreover, the “percent of non responsive cells” value with human PMN neutrophils [4] (C5a stimulation and treatment with the L-lysine salts) turned out to be 50%. In addition, the “FMLP [Ca^++ ]i (% ± SEM)” value with human PMN neutrophils [5] is listed as 193 ± 6%. This molecule also had a ulcer score in series [6] (40 mmoles/kg) of 2. The ulcer-inducing properties entry in series [6] (compared with (S) enantiomer) was “less ulcer-inducing properties”. Further, the “inhibition of oedema formation” value in the series on oedema formation [7] is “significantly inhibited oedema formation”. Further, the “La^+++ + IL-8 [Ca^++ ]i (% ± SEM)” value in [8] came out at 176 ± 7%. For the same molecule, the “[Ca^++ ]i (% ± SEM)” value with human PMN leukocytes (drug 10^-6 M) is listed as 182 ± 15%; with human PMN leukocytes (drug 10^-7 M), 193 ± 10%; in the series on human PMN leukocytes (drug 10^-8 M) it was 188 ± 8%; in the series on human PMN leukocytes (drug 10^-9 M), 364 ± 29%. The “effect on TNF-a release” value in [9] is “completely ineffective”. Also, the “effect on IL-1b release” value in series [10] is recorded as “completely ineffective”. For the same molecule, the “inhibitory effect on human PMN neutrophil degranulation (elastase release)” value in the series on human PMN neutrophils [11] is on record as “specific inhibitory effects”.

For orientation: IC50 means the concentration that inhibits the measured activity by half. The low end stands for higher potency, the high end for lower potency. `C[C@@H](C(=O)O)c1cccc(C(=O)c2ccccc2)c1` [(R)-ketoprofen, (R)-2-(3-benzoylphenyl)propionic acid]: in [12], the “conversion of (R) into (S) enantiomer” value was “completely converted”. Further, the IC50 with TXB2 synthesis is 9.75 ± 0.75 mM. For the same molecule, the gastrolesive action result in the series “gastrolesive action” is “substantially devoid”. In addition, the “in vivo antiinflammatory effectiveness, croton oil-induced ear oedema” value in series [13] was “significantly lower than those of the racemate and of the (S) enantiomer”. Besides, in the series on platelet aggregation, the “inhibitory action on platelet aggregation” value is on record as “substantially devoid”. The “inhibition of COX-1” value in the series with COX-1 is given as “do not inhibit”. Further, the “inhibition of COX-2” value in the series with COX-2 was “do not inhibit”. Also, the “inhibition of pain perception” value in the series on pain perception was “efficacy at least similar to that of the (S) enantiomers”. Further, the “Protection, UV radiation-induced epidermal erythema” value in series [14] was 53.1±4.6%. Moreover, the “in vivo antiinflammatory effectiveness, carrageenin-induced oedema” value in series [15] is “significantly lower than those of the racemate and of the (S) enantiomer”.
